Data as given in PubChem BioAssay (NCI).
Several values for one entry are separate records, joined by “and”; a condition that tells them apart may be missing. Identical values can stand only once.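 Assay format: 96-well plates, 48-hour exposure. GI50 = concentration required for 50% inhibition of growth. TGI: concentration producing complete growth inhibition.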

Columns and labels:
Experiment in all cases: growth of human tumour cells (NCI), 48 h
BT-549 breast = system: BT-549 breast
CCRF-CEM leukemia = system: CCRF-CEM leukemia
EKVX NSCLC = system: EKVX NSCLC
HOP-62 NSCLC = system: HOP-62 NSCLC
HT29 colon = system: HT29 colon
NCI-H460 lung = system: NCI-H460 lung
RXF 393 renal = system: RXF 393 renal
SK-MEL-2 melanoma = system: SK-MEL-2 melanoma
TK-10 renal = system: TK-10 renal
U251 CNS = system: U251 CNS

| SMILES | TGI (BT-549 breast) | TGI (CCRF-CEM leukemia) | TGI (EKVX NSCLC) [µM] | TGI (HOP-62 NSCLC) | TGI (HT29 colon) [µM] | TGI (NCI-H460 lung) [µM] | TGI (RXF 393 renal) [µM] | TGI (SK-MEL-2 melanoma) | TGI (TK-10 renal) [µM] | TGI (U251 CNS) | GI50 (BT-549 breast) [µM] | GI50 (CCRF-CEM leukemia) [µM] | GI50 (EKVX NSCLC) [µM] | GI50 (HOP-62 NSCLC) [µM] | GI50 (HT29 colon) [µM] | GI50 (NCI-H460 lung) [µM] | GI50 (RXF 393 renal) [µM] | GI50 (SK-MEL-2 melanoma) [µM] | GI50 (TK-10 renal) [µM] | GI50 (U251 CNS) [µM] |
| --- | --- | --- | --- | --- | --- | --- | --- | --- | --- | --- | --- | --- | --- | --- | --- | --- | --- | --- | --- | --- |
| CC(C)(CCc1nc2ccccc2[nH]1)C(=O)O | > 100 µM | > 100 µM | > 100 | > 100 µM | > 100 | > 100 | > 100 | > 100 µM | > 100 | > 100 µM |  |  |  |  |  |  |  |  |  |  |
| O=C(/C=C/N1CCN(c2cccc(Cl)c2)CC1)c1ccc(Cl)cc1 | 50.2 µM | 66.7 µM | 85.3 | > 100 µM | > 100 | > 100 | > 100 | > 100 µM | > 100 | > 100 µM | 19.3 | 22.6 | 25.9 | 48.4 | 32.8 | 33.6 | 39.1 | 35.3 | 30.8 | 42.1 |
| O=C(c1ccccc1)c1ccc(N2C(=O)C3C4c5ccccc5C(/C=C/C(=O)c5ccccn5)(c5ccccc54)C3C2=O)cc1 (centres undefined) | 9.88 µM | > 100 µM | 39 | > 100 µM | > 100 | 9.23 | 3.07 | 15.4 µM | > 100 | 4.62 µM | 2.62 | 0.976 | 3.02 | 3.43 | 2.92 | 2.67 | 1.56 | 3.07 | 6.68 | 2.08 |
| C=CCCC1(CCP(=O)(c2ccccc2)c2ccccc2)OCCO1 | > 100 µM | > 100 µM | > 100 | > 100 µM | > 100 | > 100 | > 100 | > 100 µM | > 100 | > 100 µM |  |  |  |  |  |  |  |  |  |  |
| CC(C)C12CCC3(CCC4C(C)(C(=O)O)CCCC4(C)C3C1)C(CN)C2 (centres undefined) | 95.5 µM | 19.4 µM | 62 | > 100 µM | 47.2 | 52.3 | > 100 | > 100 µM | > 100 | > 100 µM |  |  |  |  |  |  |  |  |  |  |
| Oc1ccc(/C=N/Nc2nnc(N/N=C/c3ccc(O)cc3O)c3ccccc23)c(O)c1 | 0.581 µM and 1.94 µM | 0.783 µM and 5.49 µM |  | 0.793 µM and 2.02 µM | 7.2 | 1.76 | 2.4 | 0.623 µM and 2.57 µM | 9.18 | 0.976 µM and 5.34 µM | 0.399 | 0.28 | 0.349 | 0.509 | 1.76 | 0.414 | 0.519 | 0.674 | 0.526 | 0.312 |
| CC(=O)Nc1ccc(C(=O)NN2C(=O)CSC2c2ccccc2)cc1 (centres undefined) | 83 µM | > 100 µM | > 100 | > 100 µM | > 100 | > 100 | > 100 | > 100 µM | > 100 | > 100 µM |  |  |  |  |  |  |  |  |  |  |
| ClCc1ccc(Cn2cnc3nc(Cl)nc(Cl)c32)cc1 | 3.48 µM | 6.19 µM | 1.88 | 3.74 µM |  | 9.19 | 3.24 | 3.06 µM | 0.932 | 1.96 µM | 1.87 | 1.79 | 0.704 | 1.98 | 0.97 | 3.65 | 1.3 | 1.41 | 0.43 | 0.772 |
| CCn1c(SC)nnc1-c1cc2c([nH]c3ccccc32)c(-c2cccc(O)c2)n1 | 6.31 µM | > 100 µM | 26.2 | 15.8 µM | 12.5 | 16.6 | 3.18 | 7.6 µM | 13.1 | 19.1 µM | 1.68 | 1.57 | 3.02 | 2.87 | 3.41 | 1.6 | 1.14 | 1.88 | 2.68 | 2.97 |
| N#Cc1c(N/N=C/c2c(Cl)cccc2Cl)nc(N)nc1N1CCCC1 | > 100 µM | 16.1 µM | > 100 | > 100 µM | > 100 |  | > 100 | > 100 µM | > 100 | > 100 µM | 11.3 | 3.52 | 39.7 | 1.7 | 1.96 |  | 2.34 | 5.55 | 5.9 | 2.51 |
| O=C1COc2c(CCNCCN(C(=O)CCNCCc3ccc(Cl)c(Cl)c3)C3CCCCC3)ccc(O)c2N1 | 29 µM | 27.6 µM | 30 | 32.7 µM | 33.8 | 31.1 | 30.7 | 34.9 µM | 28.8 | 32 µM | 14.3 | 11 | 15.4 | 15.3 | 16.7 | 16.5 | 14.8 | 17.2 | 14.1 | 16.3 |
| Cc1ccc(S(=O)(=O)NCc2cccc([N+](=O)[O-])c2)cc1 | > 100 µM | > 100 µM | > 100 | > 100 µM | > 100 | > 100 | > 100 | > 100 µM | > 100 | > 100 µM |  |  |  |  |  |  |  |  |  |  |
| COC(=O)C(NC(=O)c1ccccc1)c1ccc(OC)c(I)c1 (centres undefined) | > 100 µM | > 100 µM | > 100 | > 100 µM | > 100 | > 100 | > 100 | > 100 µM | > 100 | > 100 µM | > 100 | 53.8 | 89.1 | > 100 | 49 | 67.6 | > 100 | > 100 | 38.5 | 65.6 |
| O=C(NCc1cccnc1)c1ccc([N+](=O)[O-])o1 | > 15.1 µM | > 32.5 µM | > 32.5 | 4.79 µM | 2.37 | 3.73 | 5.12 | 14.4 µM | 10.4 | 3.83 µM | 9.77 | 14.5 | 13.3 | 1.3 | 0.825 | 1.62 | 1.15 | 4.91 | 3.33 | 1.03 |
| O=C1C(=O)c2c(ccc3ccccc23)-c2ccccc21 | 4.62 µM | > 100 µM | 5.39 | 4.56 µM | 6.21 | 3.08 | 3.22 | 3.78 µM | 7.54 | 3.56 µM | 2.05 | 2.17 | 1.98 | 1.9 | 2.52 | 1.6 | 1.68 | 1.73 | 2.17 | 1.67 |
| O=C(COC(=O)[C@H](C[Se][Se]C[C@H](NC(=O)c1ccc(Br)cc1F)C(=O)OCC(=O)c1ccc(F)cc1)NC(=O)c1ccc(Br)cc1F)c1ccc(F)cc1 | 1.31 µM |  | 1.52 | 2.24 µM | > 58.7 | 1.27 | 1.5 | 4.74 µM | 0.9 | 1.92 µM | 0.603 |  | 0.517 | 0.654 | 0.916 | 0.345 | 0.422 | 1.66 | 0.341 | 0.696 |
| Cc1cc2c(SCc3ccccc3Cl)nc(N)nc2nc1C | > 100 µM | > 100 µM | > 100 | > 100 µM | > 100 | > 100 | > 100 | > 100 µM | > 100 | > 100 µM |  |  |  |  |  |  |  |  |  |  |
| Cc1cc(C2(c3cc(C)c(O)c4ncccc34)OC(=O)c3ccccc32)c2cccnc2c1O | > 100 µM | > 100 µM |  | > 100 µM | > 100 | 0.203 | > 100 | > 100 µM |  | > 100 µM | 5.26 |  | 0.0124 | 0.643 | 0.106 |  |  | 0.117 |  |  |
| Cn1c(=O)c(-c2c(Cl)cccc2Cl)cc2cnc(Nc3ccc(N4CCOCC4)cc3)nc21 |  | 0.332 µM | > 30.9 | 0.124 µM | 1.17 |  | 3.86 | > 100 µM | 1.24 | 6.13 µM | 0.109 | 0.0272 | 0.798 | < 0.01 | < 0.0467 | 0.57 | 1.36 | 2.48 |  | 0.17 |
| O=C1OC(c2ccccc2)=N/C1=C\c1ccc(N(CCCl)CCCl)cc1 | > 100 µM | > 100 µM | > 100 | > 100 µM | > 100 | > 100 | > 100 | > 100 µM | > 100 | > 100 µM |  |  |  |  |  |  |  |  |  |  |
| Cc1c(-c2ccc(N3CCc4cccc(C(=O)Nc5nc6ccccc6s5)c4C3)nc2C(=O)O)cnn1CC12CC3CC(CC(C3)C1)C2 | 16.4 µM | 10.4 µM | 28.3 | 27.8 µM | 25.3 | 24.6 | 4.61 | 20.5 µM | 13.5 | 30.2 µM | 3.73 | < 0.01 | 8.62 | 10.1 | 7.79 | 8.22 | 0.0853 | 3.1 | 2.99 | 7.04 |
